Experiments:
Format in all cases: in vivo, chicken chicks
[1] = system: Eimeria acervulina, Eimeria maxima and Eimeria tenella; assay: Cage experiments coccidiosis/chicks, mixed experimental infection
Protocol: (§1) The efficacy of the compounds according to the invention can be confirmed, for example, in cage experiments using the following experimental arrangement, in which the animals are treated with the respective individual components and with the mixtures of the individual components.
(§2) An active compound-containing feed is prepared in such a way that the required amount of active compound is thoroughly mixed with a nutritionally balanced animal feed, e.g. with the chick feed indicated below.
(§3) 8 to 12 day-old male chicken chicks raised under coccidea-free conditions (e.g. LSL Brinkschulte/Senden) receive the compounds according to the invention (test substances) from 3 days before (day -3) the infection (=a.i.) until 8 (9) days after the infection (=p.i.) with the feed in the concentration indicated in ppm. Three animals are kept in each cage. Per dose, one to a number of groups of this type are employed. Infection is carried out by means of a stomach tube directly into the crop using approximately 100,000 sporulated oocysts of Eimeria acervulina and with in each case approximately 30,000 oocysts of E. maxima and 40,000 sporulated oocysts of E. tenella. These are highly virulent strains. The exact infectious dose is adjusted such that if possible one of three experimentally infected untreated chicks dies due to infection. For the assessment of the efficacy, the following criteria are taken into consideration: weight increase from the start of the experiment to the end of the experiment, death rate due to infection, macroscopic assessment of the faeces with respect to diarrhoea and excretion of blood on days 5 and 7 p.i. (grade 0 to 6), macroscopic grade of the intestinal mucous membrane, in particular of the cecums (grade 0 to 6) and the oocyst excretion and also the proportion (in %) of the oocysts sporulating within 24 hours. The number of oocysts in the faeces was determined with the aid of the McMaster counting chamber (see Engelbrecht and coworkers “Parasitologische Arbeitsmethoden in Medizin und Veterinärmedizin, [Parasitological working methods in medicine and veterinary medicine] Akademie-Verlag, Berlin (1965)). The individual findings are related to the untreated noninfected control groups and an overall grade is calculated (cf. A. Haberkorn (1986), pp. 263 to 270 in Research in Avian Coccidiosis ed L. R. McDougald, L. P. Joyner, P. L. Long Proceedings of the Georgia Coccidiosis Conference Nov, 18-20, 1985 Athens/Ga. USA).
In the column “ppm”, the concentration of the active compound employed in the feed is indicated in ppm.
In the column “mortality”, the percentage of the animals which have died is indicated under % and the number of the animals which have died/animals employed in the experiment is indicated under n.
In the column “weight % of not inf. control”, the ratio of the weight of the treated animals to the weight of the noninfected control group is indicated.
(§4) In the columns “dropping scores”, “lesion score” and “oocyst control”, individual details of the action are given.
In the column “% efficacy”, the overall rating is assessed; 0% means no action, 100% means complete action.

Eimeria acervulina = assay: Cage experiments coccidiosis/chicks, Eimeria acervulina part of the mixed infection; details: for Efficacy against Eimeria acervulina (grade): first symbol of cell; for Efficacy against Eimeria acervulina (grade): key: 2 = complete action; 1 = weak action; 0 = inactive; D = death
Protocol: as §1, §2, §3, §4

Eimeria maxima = assay: Cage experiments coccidiosis/chicks, Eimeria maxima part of the mixed infection; details: for Efficacy against Eimeria maxima (grade): second symbol of cell; for Efficacy against Eimeria maxima (grade): key: 2 = complete action; 1 = weak action; 0 = inactive; D = death
Protocol: as §1, §2, §3, §4

Eimeria tenella = assay: Cage experiments coccidiosis/chicks, Eimeria tenella part of the mixed infection; details: for Efficacy against Eimeria tenella (grade): third symbol of cell; for Efficacy against Eimeria tenella (grade): key: 2 = complete action; 1 = weak action; 0 = inactive; D = death
Protocol: as §1, §2, §3, §4

[2] = 0 ppm in feed (so in the source)
[3] = 0 ppm in feed (so in the source), grade 0 to 6

## Cc1oc(=O)oc1Cn1c(C(F)(F)F)nc2c(Cl)cc(C(F)(F)F)cc21 [Example 11]
[1]; [2]
  % efficacy tot.: 39%
  mortality %: 0%
  mortality n (died/employed): 0/3
  oocyst in % of inf. control tot.: 34%
  weight % of not inf. control: 52%
[1]; [3]
  dropping scores: 6
  lesion score: 6
[1]; 5 ppm
  % efficay tot.: 11%
  dropping scores: 6
  lesion score: 6
  mortality %: 33%
  mortality n: 1/3
  oocyst in % of inf. control tot.: 47 % of inf. control
  weight % of not inf. control: 42 % of not inf. control
[1]; 5 ppm in feed
  % efficacy tot.: 0%
  mortality %: 66%
  mortality n (died/employed): 2/3
  oocyst in % of inf. control tot.: >100%
  weight % of not inf. control: 17%
[1]; 5 ppm in feed, grade 0 to 6
  dropping scores: 6
  lesion score: 6
[1]; 7.5 ppm
  % efficay tot.: 7%
  dropping scores: 6
  lesion score: 6
  mortality %: 0%
  mortality n: 0/3
  oocyst in % of inf. control tot.: 75 % of inf. control
  weight % of not inf. control: 58 % of not inf. control
[1]; 10 ppm
  % efficay tot.: 22%
  dropping scores: 6
  lesion score: 6
  mortality %: 33%
  mortality n: 1/3
  oocyst in % of inf. control tot.: 72 % of inf. control
  weight % of not inf. control: 41 % of not inf. control
[1]; 25 ppm in feed
  % efficacy tot.: 79%
  mortality %: 0%
  mortality n (died/employed): 0/3
  oocyst in % of inf. control tot.: 0%
  weight % of not inf. control: 67%
[1]; 25 ppm in feed, grade 0 to 6
  dropping scores: 2
  lesion score: 0
Eimeria acervulina; [2]
  oocyst in % of inf. control ac.: 38%
Eimeria acervulina; 5 ppm
  oocyst in % of inf. control ac.: 19 % of inf. control
Eimeria acervulina; 5 ppm in feed
  oocyst in % of inf. control ac.: >100%
Eimeria acervulina; 7.5 ppm
  oocyst in % of inf. control ac.: 22 % of inf. control
Eimeria acervulina; 10 ppm
  oocyst in % of inf. control ac.: 91 % of inf. control
Eimeria acervulina; 25 ppm in feed
  oocyst in % of inf. control ac.: 0%
Eimeria acervulina; Dose 5 ppm
  Efficacy against Eimeria acervulina (grade): 0
Eimeria acervulina; Dose 10 ppm
  Efficacy against Eimeria acervulina (grade): 1
Eimeria acervulina; Dose 25 ppm
  Efficacy against Eimeria acervulina (grade): 2
Eimeria maxima; [2]
  oocyst in % of inf. control max.: 0%
Eimeria maxima; 5 ppm
  oocyst in % of inf. control max.: >100 % of inf. control
Eimeria maxima; 5 ppm in feed
  oocyst in % of inf. control max.: 0%
Eimeria maxima; 7.5 ppm
  oocyst in % of inf. control max.: >100 % of inf. control
Eimeria maxima; 10 ppm
  oocyst in % of inf. control max.: 0 % of inf. control
Eimeria maxima; 25 ppm in feed
  oocyst in % of inf. control max.: 0%
Eimeria maxima; Dose 5 ppm
  Efficacy against Eimeria maxima (grade): 0
Eimeria maxima; Dose 10 ppm
  Efficacy against Eimeria maxima (grade): 1
Eimeria maxima; Dose 25 ppm
  Efficacy against Eimeria maxima (grade): 2
Eimeria tenella; [2]
  oocyst in % of inf. control ten.: 27%
Eimeria tenella; 5 ppm
  oocyst in % of inf. control ten.: 91 % of inf. control
Eimeria tenella; 5 ppm in feed
  oocyst in % of inf. control ten.: >100%
Eimeria tenella; 7.5 ppm
  oocyst in % of inf. control ten.: >100 % of inf. control
Eimeria tenella; 10 ppm
  oocyst in % of inf. control ten.: 44 % of inf. control
Eimeria tenella; 25 ppm in feed
  oocyst in % of inf. control ten.: 0%
Eimeria tenella; Dose 5 ppm
  Efficacy against Eimeria tenella (grade): 0
Eimeria tenella; Dose 10 ppm
  Efficacy against Eimeria tenella (grade): 1
Eimeria tenella; Dose 25 ppm
  Efficacy against Eimeria tenella (grade): 2

## Cc1oc(=O)oc1Cn1c(C(F)(F)F)nc2cc(Cl)c(C(F)(F)F)cc21 [Example 18]
[1]; 5 ppm in feed
  % efficacy tot.: 7%
  mortality %: 0%
  mortality n (died/employed): 0/3
  oocyst in % of inf. control tot.: >100%
  weight % of not inf. control: 33%
[1]; 5 ppm in feed, grade 0 to 6
  dropping scores: 6
  lesion score: 6
[1]; 10 ppm in feed
  % efficacy tot.: 5%
  mortality %: 0%
  mortality n (died/employed): 0/3
  oocyst in % of inf. control tot.: >100%
  weight % of not inf. control: 30%
[1]; 10 ppm in feed, grade 0 to 6
  dropping scores: 6
  lesion score: 6
[1]; 25 ppm in feed
  % efficacy tot.: 75%
  mortality %: 0%
  mortality n (died/employed): 0/3
  oocyst in % of inf. control tot.: 1%
  weight % of not inf. control: 82%
[1]; 25 ppm in feed, grade 0 to 6
  dropping scores: 1
  lesion score: 3
Eimeria acervulina; 5 ppm in feed
  oocyst in % of inf. control ac.: >100%
Eimeria acervulina; 10 ppm in feed
  oocyst in % of inf. control ac.: >100%
Eimeria acervulina; 25 ppm in feed
  oocyst in % of inf. control ac.: 0%
Eimeria acervulina; Dose 5 ppm
  Efficacy against Eimeria acervulina (grade): 0
Eimeria acervulina; Dose 10 ppm
  Efficacy against Eimeria acervulina (grade): 0
Eimeria acervulina; Dose 25 ppm
  Efficacy against Eimeria acervulina (grade): 2
Eimeria maxima; 5 ppm in feed
  oocyst in % of inf. control max.: >100%
Eimeria maxima; 10 ppm in feed
  oocyst in % of inf. control max.: 0%
Eimeria maxima; 25 ppm in feed
  oocyst in % of inf. control max.: 20%
Eimeria maxima; Dose 5 ppm
  Efficacy against Eimeria maxima (grade): 0
Eimeria maxima; Dose 10 ppm
  Efficacy against Eimeria maxima (grade): 0
Eimeria maxima; Dose 25 ppm
  Efficacy against Eimeria maxima (grade): 1
Eimeria tenella; 5 ppm in feed
  oocyst in % of inf. control ten.: >100%
Eimeria tenella; 10 ppm in feed
  oocyst in % of inf. control ten.: >100%
Eimeria tenella; 25 ppm in feed
  oocyst in % of inf. control ten.: 1%
Eimeria tenella; Dose 5 ppm
  Efficacy against Eimeria tenella (grade): 0
Eimeria tenella; Dose 10 ppm
  Efficacy against Eimeria tenella (grade): 0
Eimeria tenella; Dose 25 ppm
  Efficacy against Eimeria tenella (grade): 2
